In brackets after ≈: the same amount, converted by molar mass.
How the values were obtained:
MDA-MB-231 [1] = assay: Induction of apoptosis in human MDA-MB-231 cells assessed as proportion of viable cells at 5.21 uM measured after 24 hrs by Annexin V-FITC/propidium iodide staining based flow cytometry (reference value: 99%); assay type: functional
MCF7 [2] = assay: Induction of apoptosis in human MCF-7 cells assessed as proportion of necrotic cells at 8.66 uM measured after 24 hrs by Annexin V- FITC/propidium iodide staining based flow cytometry (reference value: 5.3%); assay type: functional
MDA-MB-231 [3] = assay: Induction of cell cycle arrest in human MDA-MB-231 cells assessed as accumulation at S phase at 10.42 uM by propidium iodide staining based flow cytometry (reference value: 11.35 +/- 0.07%); assay type: functional
MDA-MB-231 [4] = assay: Induction of cell cycle arrest in human MDA-MB-231 cells assessed as accumulation at S phase at 5.21 uM by propidium iodide staining based flow cytometry (reference value: 11.35 +/- 0.07%); assay type: functional
[5] = Toxicity in Swiss albino mouse assessed as WBC level in blood at 300 mg/kg, po administered as single dose (reference value: 17.06 +/- 1.33x10^3/mm3); assay type: organism-based; settings: in vivo
[6] = Toxicity in Swiss albino mouse assessed as serum protein level at 5 mg/kg, po administered as single dose (reference value: 2.83 +/-0.09 mg/ml); assay type: organism-based; settings: in vivo
[7] = Toxicity in Swiss albino mouse assessed as albumin level in serum at 5 mg/kg, po administered as single dose (reference value: 0.56 +/-0.02 g/dl); assay type: organism-based; settings: in vivo
MDA-MB-231 [8] = assay: Induction of apoptosis in human MDA-MB-231 cells assessed as proportion of necrotic cells at 5.21 uM measured after 24 hrs by Annexin V-FITC/propidium iodide staining based flow cytometry (reference value: 0.2%); assay type: functional
MCF7 [9] = assay: Induction of cell cycle arrest in human MCF-7 cells assessed as accumulation at S phase at 4.33 uM by propidium iodide staining based flow cytometry (reference value: 6.9%); assay type: functional
MCF7 [10] = assay: Induction of apoptosis in human MCF-7 cells assessed as proportion of viable cells at 2.17 uM measured after 24 hrs by Annexin V- FITC/propidium iodide staining based flow cytometry (reference value: 94.6%); assay type: functional
[11] = target: DNA topoisomerase 2-alpha (Homo sapiens) (UniProt P11388); assay: Inhibition of DNA-topoisomerase 2 in human MCF7 cells using kinetoplast DNA as substrate at 4.33 uM measured by ELISA; assay type: cell-based
Sequence of DNA topoisomerase 2-alpha (Homo sapiens) (P11388 whole entry): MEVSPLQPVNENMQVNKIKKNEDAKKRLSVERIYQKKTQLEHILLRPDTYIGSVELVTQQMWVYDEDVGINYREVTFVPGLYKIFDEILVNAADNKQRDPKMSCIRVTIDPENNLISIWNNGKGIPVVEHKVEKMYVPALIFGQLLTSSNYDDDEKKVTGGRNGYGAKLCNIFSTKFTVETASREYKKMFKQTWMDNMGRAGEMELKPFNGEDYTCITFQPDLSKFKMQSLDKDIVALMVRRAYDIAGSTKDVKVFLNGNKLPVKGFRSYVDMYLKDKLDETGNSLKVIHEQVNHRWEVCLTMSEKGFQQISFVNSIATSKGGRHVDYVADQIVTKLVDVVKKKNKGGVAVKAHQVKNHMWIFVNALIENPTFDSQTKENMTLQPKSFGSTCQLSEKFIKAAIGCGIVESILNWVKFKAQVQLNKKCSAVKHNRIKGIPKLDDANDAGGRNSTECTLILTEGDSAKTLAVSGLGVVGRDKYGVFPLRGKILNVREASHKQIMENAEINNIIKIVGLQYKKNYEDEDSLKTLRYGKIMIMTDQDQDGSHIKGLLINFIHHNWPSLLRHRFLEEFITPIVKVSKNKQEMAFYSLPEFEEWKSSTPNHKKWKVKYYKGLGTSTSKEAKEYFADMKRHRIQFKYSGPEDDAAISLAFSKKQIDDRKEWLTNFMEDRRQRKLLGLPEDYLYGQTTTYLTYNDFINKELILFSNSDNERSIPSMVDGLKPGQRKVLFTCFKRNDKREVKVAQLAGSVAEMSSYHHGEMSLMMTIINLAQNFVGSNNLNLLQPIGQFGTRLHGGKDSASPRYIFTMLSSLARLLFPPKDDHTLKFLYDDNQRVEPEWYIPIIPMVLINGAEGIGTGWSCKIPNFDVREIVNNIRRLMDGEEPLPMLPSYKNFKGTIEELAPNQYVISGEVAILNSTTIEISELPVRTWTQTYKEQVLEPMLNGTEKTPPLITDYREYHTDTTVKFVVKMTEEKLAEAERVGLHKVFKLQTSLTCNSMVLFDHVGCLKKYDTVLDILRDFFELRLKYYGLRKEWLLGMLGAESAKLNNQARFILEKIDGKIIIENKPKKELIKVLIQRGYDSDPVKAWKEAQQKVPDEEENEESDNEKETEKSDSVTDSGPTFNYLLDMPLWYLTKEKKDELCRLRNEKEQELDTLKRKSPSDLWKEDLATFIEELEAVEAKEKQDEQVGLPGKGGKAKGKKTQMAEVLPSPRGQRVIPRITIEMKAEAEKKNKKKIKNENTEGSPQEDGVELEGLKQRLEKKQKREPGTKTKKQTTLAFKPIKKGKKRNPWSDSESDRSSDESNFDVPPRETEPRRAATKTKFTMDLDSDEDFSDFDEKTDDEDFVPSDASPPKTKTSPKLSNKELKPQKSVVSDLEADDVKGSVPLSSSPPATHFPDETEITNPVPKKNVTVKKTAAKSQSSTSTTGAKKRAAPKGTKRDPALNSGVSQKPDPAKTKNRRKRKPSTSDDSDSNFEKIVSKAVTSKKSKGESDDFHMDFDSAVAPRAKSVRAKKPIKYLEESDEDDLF

MCF7 [12] = assay: Antiproliferative activity against human MCF-7 cells assessed as proportion of dead cells at 6.25 ug/ml measured after 3 weeks by crystal violet staining based soft agar colony formation assay; assay type: functional; settings: dose 6.25 µg/ml
[13] = Toxicity in Swiss albino mouse assessed as triglyceride level in serum at 5 mg/kg, po administered as single dose (reference value: 78.34 +/-2.99 mg/dl); assay type: organism-based; settings: in vivo
[14] = Toxicity in Swiss albino mouse assessed as haemoglobin level in blood at 50 mg/kg, po administered as single dose (reference value: 12.05 +/-0.88 gm/dl); assay type: organism-based; settings: in vivo
[15] = Toxicity in Swiss albino mouse assessed as SGPT level in serum at 50 mg/kg, po administered as single dose (reference value: 21.81 +/-2.1 U/L); assay type: organism-based; settings: in vivo
MCF7 [16] = assay: Induction of apoptosis in human MCF-7 cells at 2.17 uM by propidium iodide staining based flow cytometry (reference value: 2.1%); assay type: functional
[17] = Toxicity in Swiss albino mouse assessed as RBC level in blood at 300 mg/kg, po administered as single dose (reference value: 10.56 +/- 1.22x10^6/mm3); assay type: organism-based; settings: in vivo
[18] = Toxicity in Swiss albino mouse assessed as serum protein level at 50 mg/kg, po administered as single dose (reference value: 2.83 +/-0.09 mg/ml); assay type: organism-based; settings: in vivo
MCF7 [19] = assay: Induction of apoptosis in human MCF-7 cells assessed as proportion of late apoptotic cells at 8.66 uM measured after 24 hrs by Annexin V- FITC/propidium iodide staining based flow cytometry (reference value: 0.1%); assay type: functional
[20] = Toxicity in Swiss albino mouse assessed as body weight at 5 mg/kg, po administered as single dose (reference value: 31.62 +/- 1.64 gms); assay type: organism-based; settings: in vivo
[21] = Inhibition of bovine brain tubulin polymerisation measured by turbidometric method; assay type: tissue-based, Bos taurus
[22] = Toxicity in Swiss albino mouse assessed as absolute and relative heart weight at 5 to 300 mg/kg, po administered as single dose; assay type: organism-based; settings: in vivo, dose 5-300 mg/kg
MCF7 [23] = assay: Antiproliferative activity against human MCF-7 cells assessed as proportion of live cells at 25 ug/ml measured after 3 weeks by crystal violet staining based soft agar colony formation assay (reference value: 100%); assay type: functional; settings: dose 25 µg/ml
MCF7 [24] = assay: Induction of cell cycle arrest in human MCF-7 cells assessed as accumulation at G0/G1 phase at 2.17 uM by propidium iodide staining based flow cytometry (reference value: 74.5%); assay type: functional
[25] = Toxicity in Swiss albino mouse assessed as ALP level in serum at 5 mg/kg, po administered as single dose (reference value: 195.8 +/-12.06 U/L); assay type: organism-based; settings: in vivo
MCF7 [26] = assay: Antiproliferative activity against human MCF-7 cells assessed as proportion of live cells at 50 ug/ml measured after 3 weeks by crystal violet staining based soft agar colony formation assay (reference value: 100%); assay type: functional; settings: dose 50 µg/ml
MCF7 [27] = assay: Antiproliferative activity against human MCF-7 cells assessed as proportion of dead cells at 12.5 ug/ml measured after 3 weeks by crystal violet staining based soft agar colony formation assay; assay type: functional; settings: dose 12.5 µg/ml
MCF7 [28] = assay: Antiproliferative activity against human MCF-7 cells assessed as inhibition of cell growth measured after 48 hrs by SRB assay; assay type: functional, cell-based; settings: MCF7, 48 h
[29] = Toxicity in Swiss albino mouse assessed as SGOT level in serum at 5 mg/kg, po administered as single dose (reference value: 22.12 +/-1.91 U/L); assay type: organism-based; settings: in vivo
MDA-MB-231 [30] = assay: Induction of cell cycle arrest in human MDA-MB-231 cells assessed as accumulation at G0/G1 phase at 10.42 uM by propidium iodide staining based flow cytometry (reference value: 77.7 +/- 0.28%); assay type: functional
[31] = Toxicity in Swiss albino mouse assessed as cholesterol level in serum at 50 mg/kg, po administered as single dose (reference value: 103.62 +/-7.45 mg/dl); assay type: organism-based; settings: in vivo
MDA-MB-231 [32] = assay: Induction of cell cycle arrest in human MDA-MB-231 cells assessed as accumulation at G0/G1 phase at 5.21 uM by propidium iodide staining based flow cytometry (reference value: 77.7 +/- 0.28%); assay type: functional
MCF7 [33] = assay: Antiproliferative activity against human MCF-7 cells assessed as inhibition of colony formation measured after 3 weeks by crystal violet staining based soft agar colony formation assay; assay type: functional, cell-based
[34] = Toxicity in Swiss albino mouse assessed as haemoglobin level in blood at 5 mg/kg, po administered as single dose (reference value: 12.05 +/-0.88 gm/dl); assay type: organism-based; settings: in vivo

COc1ccc(C(c2ccccc2OCCN2CCCC2)c2cccc3ccccc23)c(OC)c1OC (stereo not given)
Activity (MDA-MB-231 [1]): 91.4%
Activity (MCF7 [2]): 12.1%
Activity (MDA-MB-231 [3]): 11.35%
Activity (MDA-MB-231 [4]): 7.9%
Activity [5]: 7.19 10^3/mm3
Activity [6]: 2.27 mg/mL
Activity [7]: 0.65 g/dL
Activity (MDA-MB-231 [8]): 1.7%
Activity (MCF7 [9]): 13.9%
Activity (MCF7 [10]): 77.8%
inhibition [11]: 0.22%
Activity (MCF7 [12]): 29.23%
Activity [13]: 77.24 mg/dL
Activity [14]: 9.96 g/dL
Activity [15]: 19.12 U/L
Activity (MCF7 [16]): 2.2%
Activity [17]: 11.64 million/mm3
Activity [18]: 2.52 mg/mL
Activity (MCF7 [19]): 25.8%
Activity [20]: 30.58 g
IC50 [21]: 5.65 µM
Activity [22]: Non-Toxic
Activity (MCF7 [23]): 20.64%
Activity (MCF7 [24]): 74.6%
Activity [25]: 198.57 U/L
Activity (MCF7 [26]): 12.98%
Activity (MCF7 [27]): 52.8%
IC50 (MCF7 [28]): 4.33 µM
Activity [29]: 27.32 U/L
Activity (MDA-MB-231 [30]): 56.9%
Activity [31]: 100.11 mg/dL
Activity (MDA-MB-231 [32]): 79.1%
inhibition (MCF7 [33]): Dose-dependent effect
IC50 (MCF7 [33]; MCF7, 504 h): 11.2 µg/mL (≈ 22.6 µM)
Activity [34]: 11.35 g/dL

Reference: ChEMBL document CHEMBL4680139, “Antiproliferative activity of diarylnaphthylpyrrolidine derivative via dual target inhibition” (Eur J Med Chem, 2020)
